PubChem BioAssay AID248 (DTP/NCI, 2004)
Inconclusive results and toxic doses are left out. Cut-off read from the data, not from the text of the source: active = T/C of 150% or more; inactive = T/C below 125%.

System: L1210 leukemia ip in BDF1 mice, survival T/C
Assay: NCI In Vivo Anticancer Drug Screen. Data for tumor model L1210 Leukemia (intraperitoneal) in B6D2F1 (BDF1) mice
Settings: endpoint: mean survival time, higher = longer survival
Outline: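 In this screen, tumor-bearing mice given compound are compared to those given vehicle, and their survival values are reported as a treated-to-control quotient.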

Measured: T/C

O=c1oc2ccccc2c(O)c1Oc1ccccc1
inactive: dose: 100.0 mg/kg/injection, schedule: Q04DX003 (ip), vehicle: saline 98 % of control | dose: 200.0 mg/kg/injection, schedule: Q04DX003 (ip), vehicle: saline 91 % of control | dose: 400.0 mg/kg/injection, schedule: Q04DX003 (ip), vehicle: saline 87 % of control

O=C(COc1cccc(Cl)c1)NCc1ccc(NC(=O)CBr)cc1
inactive: dose: 25.0 mg/kg/injection, schedule: Q01DX001 (ip), vehicle: gum acacia 94 % of control | dose: 50.0 mg/kg/injection, schedule: Q01DX001 (ip), vehicle: gum acacia 96 % of control | dose: 100.0 mg/kg/injection, schedule: Q01DX001 (ip), vehicle: gum acacia 98 % of control | dose: 200.0 mg/kg/injection, schedule: Q01DX001 (ip), vehicle: gum acacia 90 % of control | dose: 400.0 mg/kg/injection, schedule: Q01DX001 (ip), vehicle: gum acacia 90 % of control

CC1=CC(=O)C2CCC=C(C(=O)O)C2(C)C1=O (stereo unspecified)
inactive: dose: 100.0 mg/kg/injection, schedule: Q04DX003 (ip), vehicle: alcohol 97 % of control | dose: 200.0 mg/kg/injection, schedule: Q04DX003 (ip), vehicle: alcohol 102 % of control | dose: 400.0 mg/kg/injection, schedule: Q04DX003 (ip), vehicle: alcohol 97 % of control

O=COC1CC2CC1c1ccccc12 (stereo unspecified)
inactive: dose: 50.0 mg/kg/injection, schedule: Q01DX001 (ip), vehicle: saline 105 % of control | dose: 100.0 mg/kg/injection, schedule: Q01DX001 (ip), vehicle: saline 105 % of control | dose: 200.0 mg/kg/injection, schedule: Q01DX001 (ip), vehicle: saline 105 % of control | dose: 400.0 mg/kg/injection, schedule: Q01DX001 (ip), vehicle: saline 105 % of control

CCOc1ccc(CCC(=O)O)cc1
inactive: dose: 100.0 mg/kg/injection, schedule: Q04DX003 (ip), vehicle: Klucel (hydroxypropylcellulose) (HPC) 100 % of control | dose: 200.0 mg/kg/injection, schedule: Q04DX003 (ip), vehicle: Klucel (hydroxypropylcellulose) (HPC) 105 % of control | dose: 400.0 mg/kg/injection, schedule: Q04DX003 (ip), vehicle: Klucel (hydroxypropylcellulose) (HPC) 94 % of control

O=c1cnn(C2OC(CO)C(O)C2O)c(=S)[nH]1 (stereo unspecified)
inactive: dose: 100.0 mg/kg/injection, schedule: Q01DX005 (ip), vehicle: saline 113 % of control | dose: 100.0 mg/kg/injection, schedule: Q01DX009 (ip), vehicle: saline 124 % of control | dose: 200.0 mg/kg/injection, schedule: Q01DX005 (ip), vehicle: saline 108 % of control | dose: 200.0 mg/kg/injection, schedule: Q01DX009 (ip), vehicle: saline 123 % of control | dose: 400.0 mg/kg/injection, schedule: Q01DX009 (ip), vehicle: saline 117 % of control

CCCCCCCCCCOc1ccc(/C=N\N=C\c2ccc(OCCCCCCCCCC)cc2)cc1
inactive: dose: 100.0 mg/kg/injection, schedule: Q01DX009 (ip), vehicle: saline with Tween-80 88 % of control | dose: 200.0 mg/kg/injection, schedule: Q01DX009 (ip), vehicle: saline with Tween-80 97 % of control | dose: 400.0 mg/kg/injection, schedule: Q01DX009 (ip), vehicle: saline with Tween-80 95 % of control
